This note sets out measurements from patent publication US8859574B2 (IRM LLC, priority 2008, dated 2014).

The structures appear in SMILES notation.

This assay deals with T1, IGF-1R Ba/F3 (Homo sapiens, UniProt P08069).
T1 construct: fused on or other part: TEL- (or BCR-) IGF-1R in Ba/F3: the kinase part holds the site
T1 sequence (P08069 999-1274 limits assumed): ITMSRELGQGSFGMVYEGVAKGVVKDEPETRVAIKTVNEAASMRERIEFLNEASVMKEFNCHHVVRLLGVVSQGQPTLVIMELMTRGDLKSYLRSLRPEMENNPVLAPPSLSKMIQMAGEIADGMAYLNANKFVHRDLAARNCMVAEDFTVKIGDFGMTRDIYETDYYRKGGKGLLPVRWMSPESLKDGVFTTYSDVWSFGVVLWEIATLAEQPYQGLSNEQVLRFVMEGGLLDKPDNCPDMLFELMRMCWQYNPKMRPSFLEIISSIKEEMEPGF
Description: Ba/F3 Cell Viability Inhibition Assay (IGF-1R Ba/F3). In kind it is cell-based, murine. As to conditions: Tel-TK transformed Ba/F3 cells, 48 hours, Britelite luminescence. An excerpt:
The IC50 of a drug may be determined constructing a dose-response curve and examining the effect of different concentrations of antagonist on reversing agonist activity. IC50 values may be calculated for a given antagonist by determining the concentration needed to inhibit half of the maximum biological response of the agonist. To calculate IC50 values, a series of dose-response data (e.g., drug concentrations x1, x2, . . . , xn and growth inhibition y1, y2, . . . , yn, the values of y are in the range of 0-1) is generated. IC50 values may be determined by a computer-aided system using the formula: y=D+((A−D)/(1+10^(x-log(IC50)B) • where A is the ratio of growth inhibition between lowest drug concentration and control; B is the slope of sigmoidal curvel; and D is the ratio of growth inhibition between highest drug concentration and control.
Ba/F3 is a murine IL-3-dependent pro-B lymphoma cell line. Parental Ba/F3 cells are used to generate a panel of sublines whose proliferation and survival is rendered IL-3-independent by stable transduction with individual tyrosine kinases activated by fusion with the amino-terminal portion of TEL (amino acid 1-375) or BCR. In order to generate Ba/F3 cell lines transformed by Tel-Tyrosine Kinase (TK) fusions, parental Ba/F3 cells are infected with a retrovirus harboring each TEL-fusion kinase and subjected to puromycin selection and IL-3 withdrawal to obtain IL-3-independent, transformed Ba/F3 cells.
Each transformed Ba/F3 cells are cultured in RPMI-1640 media (Gibco Cat #11875093, Carlsbad, Calif.) supplemented with 10% FBS (Hyclone Cat #SV30014.03, Logan, Utah), 4.5 g/L glucose (Sigma #G5400, St. Louis, Mo.), 1.5 g/L sodium bicarbonate (Biowhittaker #17-613E, Walkersville, Md.) and Pen/Strep (Gibco #10378-016, Carlsbad, Calif.). Cells are splitted twice weekly.
The potency of test compounds against various Tel-TK transformed Ba/F3 lines is determined as follows. Exponentially growing BaF3 Tel-TK cells are diluted in fresh medium to 75,000 cells/mL and seeded into 384-well plates (3750 cells/well) at 50 μL/well using a μFill liquid dispenser (BioTek, Winooski, Vt., USA). Duplicate plates are run for each cell line. Test and control compounds are serially diluted with DMSO and arrayed in a polypropylene 384-well plate. […] of compound is transferred into the assay plates using a pin-transfer device, and the plates are incubated at 37° C. (5% CO2) for 48 hours. 25 μL Britelite (Perkin Elmer) is added and luminescence is quantified using Analyst GT (Molecular Devices). Custom curve-fitting software is used to produce a logistic fit of percent cell viability as a function of the logarithm of inhibitor concentration. The IC50 is interpolated as the concentration of compound needed to reduce cell viability to 50% of a DMSO control. Parental Ba/F3 cells that are maintained and cultured in presence of IL-3 (1 ng/ml in final) are diluted in fresh medium containing IL-3 (1 ng/ml in final) to 75,000 cells/mL following the same procedure as described above.
What is called IC50 is the point on the concentration scale where inhibition reaches its midpoint. Read a low IC50 as higher potency. With `CCc1cc(Nc2ncc(Cl)c(Nc3cc(C)[nH]n3)n2)c(C)cc1C1CCN(CC(N)=O)CC1` [Compound 261, 2-(4-(4-(5-chloro-4-(5-methyl-1H-pyrazol-3-ylamino)pyrimidin-2-ylamino)-2-ethyl-5-methylphenyl)piperidin-1-yl)acetamide], the IC50 came to 27 nM.

`Cc1cc(Nc2nc(Nc3cc(C)c(C4CCN(C5CC5)CC4)cc3F)ncc2Cl)n[nH]1` [Compound 210, 5-chloro-N^2-(4-(1-cyclopropylpiperidin-4-yl)-2-fluoro-5-methylphenyl)-N^4-(5-methyl-1H-pyrazol-3-yl)pyrimidine-2,4-diamine] yielded a half-maximal inhibitory concentration (IC50) of 32 nM.

As for `CCNC1(C(=O)N2CCC(c3cc(F)c(Nc4ncc(Cl)c(Nc5cc(C)[nH]n5)n4)cc3C)CC2)CC1` [Compound 169, (4-(4-(5-chloro-4-(5-methyl-1H-pyrazol-3-ylamino)pyrimidin-2-ylamino)-5-fluoro-2-methylphenyl)piperidin-1-yl)(1-(ethylamino)cyclopropyl)methanone], the IC50 worked out at 4 nM.

In turn, `CNC(=O)CN1CCC(c2cc(C)c(Nc3ncc(Cl)c(Nc4cc(C)[nH]n4)n3)cc2C)CC1` [Compound 38, 2-(4-(4-(5-chloro-4-(5-methyl-1H-pyrazol-3-ylamino)pyrimidin-2-ylamino)-2,5-dimethylphenyl)piperidin-1-yl)-N-methylacetamide] came in with an IC50 of 10 nM.

With `Cc1cc(Nc2nc(Nc3cc(Cl)c(C4CCN(C)CC4)cc3C)ncc2Cl)n[nH]1` [Compound 7, 5-chloro-N2-(5-chloro-2-methyl-4-(1-methylpiperidin-4-yl)phenyl)-N4-(5-methyl-1H-pyrazol-3-yl)pyrimidine-2,4-diamine], the IC50 was found to be 15 nM.

`Cc1cc(Nc2nc(Nc3cc(C)c(C4CCN(CC5(C#N)CC5)CC4)cc3C)ncc2Cl)n[nH]1` [Compound 198, 1-((4-(4-(5-chloro-4-(5-methyl-1H-pyrazol-3-ylamino)pyrimidin-2-ylamino)-2,5-dimethylphenyl)piperidin-1-yl)methyl)cyclopropanecarbonitrile] had an IC50 of 22 nM.

In turn, `Cc1cc(C2CCN(CC(N)=O)CC2)c(C)cc1Nc1ncc(Cl)c(Nc2cc(C(F)(F)F)[nH]n2)n1` [Compound 217, 2-(4-(4-(5-chloro-4-(5-(trifluoromethyl)-1H-pyrazol-3-ylamino)pyrimidin-2-ylamino)-2,5-dimethylphenyl)piperidin-1-yl)acetamide] returned an IC50 of 34 nM.

Turning to `Cc1cc(Nc2nc(Nc3cc(C)c(C4CCN(C5CCC6(CC5)OCCO6)CC4)cc3F)ncc2Cl)n[nH]1` [Compound 283, N2-(4-(1-(1,4-dioxaspiro[4.5]decan-8-yl)piperidin-4-yl)-2-fluoro-5-methylphenyl)-5-chloro-N4-(5-methyl-1H-pyrazol-3-yl)pyrimidine-2,4-diamine], the IC50 came out at 16 nM. Against the preceding compound, the IC50 is about 2.1-fold lower.

`Cc1cc(Nc2nc(Nc3cc(C)c(C4CCN(C5CCOCC5)CC4)cc3F)ncc2Cl)n[nH]1` [Compound 209, 5-chloro-N^2-(2-fluoro-5-methyl-4-(1-(tetrahydro-2H-pyran-4-yl)piperidin-4-yl)phenyl)-N^4-(5-methyl-1H-pyrazol-3-yl)pyrimidine-2,4-diamine]: inhibition was half-maximal at 27 nM (IC50). This IC50 is about 1.7-fold higher than that of the compound before.

For `CNC1(C(=O)N2CCC(c3cc(F)c(Nc4ncc(Cl)c(Nc5cc(C)[nH]n5)n4)cc3C)CC2)CCC1` [Compound 177, (4-(4-(5-chloro-4-(5-methyl-1H-pyrazol-3-ylamino)pyrimidin-2-ylamino)-5-fluoro-2-methylphenyl)piperidin-1-yl)(1-(methylamino)cyclobutyl)methanone], the IC50 is 80 nM.

Compound `Cc1cc(Nc2nc(Nc3cc(C)c(C4CCCCN4C[C@H](O)C(F)(F)F)cc3C)ncc2Cl)n[nH]1` (stereo partly drawn) [Compound 197, (2S)-3-(2-(4-(5-chloro-4-(5-methyl-1H-pyrazol-3-ylamino)pyrimidin-2-ylamino)-2,5-dimethylphenyl)piperidin-1-yl)-1,1,1-trifluoropropan-2-ol] came in with an IC50 of 210 nM.

For `Cc1cc(C2CCN(C(=O)C3(N)CC3)CC2)c(C)cc1Nc1ncc(Cl)c(Nc2cc(C3CC3)[nH]n2)n1` [Compound 188, (1-aminocyclopropyl)(4-(4-(5-chloro-4-(5-cyclopropyl-1H-pyrazol-3-ylamino)pyrimidin-2-ylamino)-2,5-dimethylphenyl)piperidin-1-yl)methanone], inhibition was half-maximal at 19 nM (IC50). This IC50 lies about 11-fold lower than the previous one.

On to `Cc1cc(Nc2nc(Nc3cc(C)c(C4CCN(C(=O)C(C)(C)N)CC4)cc3C)ncc2Cl)n[nH]1` [Compound 89, 2-amino-1-(4-(4-(5-chloro-4-(5-methyl-1H-pyrazol-3-ylamino)pyrimidin-2-ylamino)-2,5-dimethylphenyl)piperidin-1-yl)-2-methylpropan-1-one], for which 23 nM corresponded to half-maximal inhibition (IC50).

`Cc1cc(Nc2nc(Nc3cc(C)c(C4CCN(C5CN(S(C)(=O)=O)C5)CC4)cc3F)ncc2Cl)n[nH]1` [Compound 300, 5-chloro-N2-(2-fluoro-5-methyl-4-(1-(1-(methylsulfonyl)azetidin-3-yl)piperidin-4-yl)phenyl)-N4-(5-methyl-1H-pyrazol-3-yl)pyrimidine-2,4-diamine] registered an IC50 of 32 nM.

In turn, `Cc1cc(Nc2nc(Nc3cc(C)c(C4CCN(C(=O)c5nc(C(C)C)no5)CC4)cc3F)ncc2Cl)n[nH]1` [Compound 265, (4-(4-(5-Chloro-4-(5-methyl-1H-pyrazol-3-ylamino)pyrimidin-2-ylamino)-5-fluoro-2-methylphenyl)piperidin-1-yl)(3-isopropyl-1,2,4-oxadiazol-5-yl)methanone] registered an IC50 of 91 nM.

`Cc1cc(Nc2nc(Nc3cc(C)c(C4CCN(Cc5noc(C(C)C)n5)CC4)cc3F)ncc2Cl)n[nH]1` [Compound 285, 5-chloro-N2-(2-fluoro-4-(1-((5-isopropyl-1,2,4-oxadiazol-3-yl)methyl)piperidin-4-yl)-5-methylphenyl)-N4-(5-methyl-1H-pyrazol-3-yl)pyrimidine-2,4-diamine]: the IC50 was 68 nM.

`Cc1cc(Nc2nc(Nc3cc(C)c(C4CCN(C(=O)[C@@H]5CCCCN5C(C)C)CC4)cc3F)ncc2Cl)n[nH]1` [Compound 125, (S)-(4-(4-(5-chloro-4-(5-methyl-1H-pyrazol-3-ylamino)pyrimidin-2-ylamino)-5-fluoro-2-methylphenyl)piperidin-1-yl)(1-isopropylpiperidin-2-yl)methanone] had an IC50 of 12 nM.

The compound `Cc1cc(Nc2nc(Nc3cc(C)c(C4CCN(CCCS(=O)(=O)N5CCOCC5)CC4)cc3F)ncc2Cl)n[nH]1` [Compound 245, 5-chloro-N2-(2-fluoro-5-methyl-4-(1-(3-(morpholinosulfonyl)propyl)piperidin-4-yl)phenyl)-N4-(5-methyl-1H-pyrazol-3-yl)pyrimidine-2,4-diamine] showed an IC50 of 77 nM.

As to `Cc1cc(Nc2nc(Nc3cc(C)c(C4CCN(C(=O)c5oc(C)nc5C)CC4)cc3F)ncc2Cl)n[nH]1` [Compound 127, (4-(4-(5-chloro-4-(5-methyl-1H-pyrazol-3-ylamino)pyrimidin-2-ylamino)-5-fluoro-2-methylphenyl)piperidin-1-yl)(2,4-dimethyloxazol-5-yl)methanone], half-maximal inhibition (IC50) was put at 27 nM.

For the compound `CNC(=O)CN1CCC(c2cc(C)c(Nc3ncc(C(F)(F)F)c(Nc4cc(C)[nH]n4)n3)cc2C)CC1` [Compound 203, 2-(4-(2,5-dimethyl-4-(4-(5-methyl-1H-pyrazol-3-ylamino)-5-(trifluoromethyl)pyrimidin-2-ylamino)phenyl)piperidin-1-yl)-N-methylacetamide], the IC50 was 15 nM.
